Experimental data from US20030153618A1, “Treatment and prevention of herpes simplex infections” (priority 1999, published 2003).

System: Herpes simplex II virus
Assay: Back titration plaque assay: PFU counts at stated amounts of compound under test and arginine
Type: cell-based, Herpes simplex II virus (BSC cells)
Description: The following experiments were conducted by back titration: Herpes simplex II virus from laboratory stocks was used. BSC cells were grown to confluence in Eagles medium with 15% fetal calf serum, 150 units per milliliter of penicillin and 100 micrograms per milliliter of streptomycin. The cultures were inoculated with 500 PFU of HS II. The virons were allowed to absorb for one hour at 25° C. The tissue cultures were then washed three times with sterile PBS to remove excess media and non-absorbed virons. The cells were then incubated at 37° C. until four-plus cytopathic effects were observed. The cells were then disrupted by slow freeze-thaw two times. The suspension was then clarified by slow speed centrifugation at 4° C. The supemanant suspension was then added to confluent BSC cultures. After one hour absorption, the cells were washed with PBS twice. The cells were overlaid in defined reagent (in triplicate) Eagles media in noble agar. The cells were then incubated at 37° C. until the plaques were easily counted, usually 40 t 72 hours. the cells were then washed two times with PBS and then fixed with 10% H2CO and a 2% sodium acetate. The cells were then stained in 0.1% crystal violet in ethanol. In the tables which follow the concentration of the compound to be tested, in micrograms per milliliter, is listed across the top of the table and the concentration of arginine in micrograms per milliliter is listed down the left side of the table, the count of plaque-forming units being shown in the matrix.

[1] = compound 10 μg/ml, arginine 0 μg/ml
[2] = compound 10 μg/ml, arginine 2.5 μg/ml
[3] = compound 10 μg/ml, arginine 5.0 μg/ml
[4] = compound 10 μg/ml, arginine 7.5 μg/ml
[5] = compound 10 μg/ml, arginine 10 μg/ml
[6] = compound 10 μg/ml, arginine 15 μg/ml
[7] = compound 10 μg/ml, arginine 20 μg/ml
[8] = compound 10 μg/ml, arginine 25 μg/ml
[9] = compound 25 μg/ml, arginine 0 μg/ml
[10] = compound 25 μg/ml, arginine 2.5 μg/ml
[11] = compound 25 μg/ml, arginine 5.0 μg/ml
[12] = compound 25 μg/ml, arginine 7.5 μg/ml
[13] = compound 25 μg/ml, arginine 10 μg/ml
[14] = compound 25 μg/ml, arginine 15 μg/ml
[15] = compound 25 μg/ml, arginine 20 μg/ml
[16] = compound 25 μg/ml, arginine 25 μg/ml
[17] = compound 50 μg/ml, arginine 0 μg/ml
[18] = compound 50 μg/ml, arginine 2.5 μg/ml
[19] = compound 50 μg/ml, arginine 5.0 μg/ml
[20] = compound 50 μg/ml, arginine 7.5 μg/ml
[21] = compound 50 μg/ml, arginine 10 μg/ml
[22] = compound 50 μg/ml, arginine 15 μg/ml
[23] = compound 50 μg/ml, arginine 20 μg/ml
[24] = compound 50 μg/ml, arginine 25 μg/ml
[25] = compound 100 μg/ml, arginine 0 μg/ml
[26] = compound 100 μg/ml, arginine 2.5 μg/ml
[27] = compound 100 μg/ml, arginine 5.0 μg/ml
[28] = compound 100 μg/ml, arginine 7.5 μg/ml
[29] = compound 100 μg/ml, arginine 10 μg/ml
[30] = compound 100 μg/ml, arginine 15 μg/ml
[31] = compound 100 μg/ml, arginine 20 μg/ml
[32] = compound 100 μg/ml, arginine 25 μg/ml
[33] = compound 200 μg/ml, arginine 0 μg/ml
[34] = compound 200 μg/ml, arginine 2.5 μg/ml
[35] = compound 200 μg/ml, arginine 5.0 μg/ml
[36] = compound 200 μg/ml, arginine 7.5 μg/ml
[37] = compound 200 μg/ml, arginine 10 μg/ml
[38] = compound 200 μg/ml, arginine 15 μg/ml
[39] = compound 200 μg/ml, arginine 20 μg/ml
[40] = compound 200 μg/ml, arginine 25 μg/ml
[41] = compound 300 μg/ml, arginine 0 μg/ml
[42] = compound 300 μg/ml, arginine 2.5 μg/ml
[43] = compound 300 μg/ml, arginine 5.0 μg/ml
[44] = compound 300 μg/ml, arginine 7.5 μg/ml
[45] = compound 300 μg/ml, arginine 10 μg/ml
[46] = compound 300 μg/ml, arginine 15 μg/ml
[47] = compound 300 μg/ml, arginine 20 μg/ml
[48] = compound 300 μg/ml, arginine 25 μg/ml
[49] = compound 400 μg/ml, arginine 0 μg/ml
[50] = compound 400 μg/ml, arginine 2.5 μg/ml
[51] = compound 400 μg/ml, arginine 5.0 μg/ml
[52] = compound 400 μg/ml, arginine 7.5 μg/ml
[53] = compound 400 μg/ml, arginine 10 μg/ml
[54] = compound 400 μg/ml, arginine 15 μg/ml
[55] = compound 400 μg/ml, arginine 20 μg/ml
[56] = compound 400 μg/ml, arginine 25 μg/ml
[57] = compound 500 μg/ml, arginine 0 μg/ml
[58] = compound 500 μg/ml, arginine 2.5 μg/ml
[59] = compound 500 μg/ml, arginine 5.0 μg/ml
[60] = compound 500 μg/ml, arginine 7.5 μg/ml
[61] = compound 500 μg/ml, arginine 10 μg/ml
[62] = compound 500 μg/ml, arginine 15 μg/ml
[63] = compound 500 μg/ml, arginine 20 μg/ml
[64] = compound 500 μg/ml, arginine 25 μg/ml

Measured: P.F.U. Count

NCCCCCC(N)C(=O)O (centres unmarked) [drawing 17]
2.8 × 10^5: [7] | [8]
6.6 × 10^3: [32]
79: [21]
68: [39]
290: [5]
3.6 × 10^4: [24]
3.2 × 10^3: [31]
2.6 × 10^5: [15]
799: [6]
6.6 × 10^4: [23]
654: [40]
0: [1] | [2] | [3] | [4] | [9] | [10] | [11] | [12] | [17] | [18] | [19] | [20] | [25] | [26] | [27] | [28] | [29] | [30] | [33] | [34] | [35] | [36] | [37] | [38] | [41] | [42] | [43] | [44] | [45] | [46] | [47] | [48] | [49] | [50] | [51] | [52] | [53] | [54] | [55] | [56] | [57] | [58] | [59] | [60] | [61] | [62] | [63] | [64]
4.2 × 10^3: [14]
3.7 × 10^3: [13]
276: [22]
4 × 10^5: [16]

CC(N)CCCCC(N)C(=O)O (centres unmarked) [drawing 18]
1.1 × 10^4: [24]
2.1 × 10^5: [7] | [16]
610: [5]
140: [56]
760: [39]
1.6 × 10^3: [32]
1.7 × 10^3: [40]
1.6 × 10^4: [23]
2.0 × 10^5: [15]
179: [54]
310: [55]
1.0 × 10^3: [31] | [48]
0: [1] | [2] | [3] | [4] | [9] | [10] | [11] | [12] | [17] | [18] | [19] | [20] | [25] | [26] | [27] | [28] | [29] | [30] | [33] | [34] | [35] | [36] | [37] | [38] | [41] | [42] | [43] | [44] | [45] | [46] | [49] | [50] | [51] | [52] | [53] | [57] | [58] | [59] | [60] | [61] | [62] | [63] | [64]
163: [47]
4.2 × 10^3: [14]
79: [21]
46: [6]
3.7 × 10^3: [13]
276: [22]
2.8 × 10^5: [8]
